Patent US8933019B2, “Antiviral cell-penetrating peptides” (priority 2008, dated 2015)
Where two headings read alike, the source gives them in different places. Bridge positions count the residues as written; N and C are the ends. Square brackets hold non-standard residues; d marks the D form. Peptide text beside a SMILES is read from it. S5 = C=CCCC[C@](C)(N)C(=O)O

Columns and labels:
[1] = system: HIV-1 AZT-R; conditions: read-out: IC50 (μM ± SD), HIV-1 AZT-R; RT-resistant isolate, subtype B, MT-2, coreceptor X4
Method: (§1) The inhibitory activity of NYAD-201, and related stapled peptides on infection by laboratory-adapted HIV-1 strains was determined as previously described (Jiang et al. J Exp. Med 174:1557-1563, 1991) with minor modifications. Azidothymidine (AZT) was used as a positive control in the infectivity assays. In brief, 1×10^4 MT-2 cells were infected with HIV-1 at 100 TCID50 (50% tissue culture infective dose) (0.01 MOI [multiplicity of infection]) in 200 μl RPMI 1640 medium containing 10% FBS in the presence or absence of peptides at graded concentrations overnight. The culture supernatants were then removed and fresh media containing freshly prepared test peptide were added. On the fourth day post-infection, 100 μl of culture supernatants were collected from each well, mixed with equal volume of 5% Triton X-100 and tested for p24 antigen by ELISA.
(§2) In addition, NYAD-201, NYAD-202 and NYAD-203 were also tested using several laboratory-adapted and primary isolates in MT-2 cells and PBMC (peripheral blood mononuclear cells), respectively.

[2] = system: HIV-1 IIIB
Method: as §1, §2

[3] = system: HIV-1 MN; conditions: read-out: IC50 (μM ± SD), HIV-1 MN; laboratory strain, subtype B, MT-2, coreceptor X4
Method: as §1, §2

[4] = system: HIV-1 RF; conditions: read-out: IC50 (μM ± SD), HIV-1 RF; laboratory strain, subtype B, MT-2, coreceptor X4
Method: as §1, §2

[5] = system: HIV-1 SF2; conditions: read-out: IC50 (μM ± SD), HIV-1 SF2; laboratory strain, subtype B, MT-2, coreceptor R5X4
Method: as §1, §2

[6] = system: HIV-1RF/L-323-12-3; conditions: read-out: IC50 (μM ± SD), HIV-1RF/L-323-12-3; PR-resistant isolate, subtype B, MT-2, coreceptor X4
Method: as §1, §2

[7] = system: HIV-1 89.6; assay type: cell-based; conditions: laboratory strain, subtype B, PBMC, coreceptor R5X4; read-out: IC50 (μM ± SD), HIV-1 89.6
Method: (§3) The inhibitory activity of peptides on infection by primary HIV-1 isolates was determined as previously described (Jiang et al., Antimicrob. Agents Chemother. 48:4349-4359, 2004). Peripheral blood mononuclear cells (PBMCs) were isolated from the blood of healthy donors at the New York Blood Center by standard density gradient centrifugation using Histopaque-1077 (Sigma-Aldrich). The cells were cultured at 37° C. for 2 hr. Nonadherent cells were collected and resuspended at 5×10^6 cells/ml RPMI-1640 medium containing 10% FBS, 5 μg/ml PHA, and 100 U/ml IL-2 (Sigma-Aldrich), followed by incubation at 37° C. for 3 days. The PHA-stimulated cells (5×10^4 cells/well) were infected with primary HIV-1 isolates at 500 TCID50 (0.01 MOI) in the absence or presence of peptide inhibitor at graded concentrations. Culture media were changed every 3 days and replaced with fresh media containing freshly prepared inhibitor. The supernatants were collected 7 days post-infection and tested for p24 antigen by ELISA (FIG. 6). The percent inhibition of p24 production, IC50 and IC90 values were calculated by the GraphPad Prism software (GraphPad Software Inc.).
(§4) In addition, NYAD-201, NYAD-202 and NYAD-203 were also tested using several laboratory-adapted and primary isolates in MT-2 cells and PBMC (peripheral blood mononuclear cells), respectively. The inhibition of p24 production in MT-2 cells by NYAD-201 and its analogs were measured over a range of concentrations and the concentration required to inhibit 50% (IC50) of the p24 production was calculated. […] NYAD-201 and its analogs inhibited the laboratory strains with low μM potency (IC50˜2-8 μM), and both R5- and X4-tropic viruses were inhibited with similar potency.

[8] = system: HIV-1 BaL; assay type: cell-based; conditions: laboratory strain, subtype B, PBMC, coreceptor R5; read-out: IC50 (μM ± SD), HIV-1 BaL
Method: as §3, §4

[9] = system: HIV-1 92UG029; assay: Inhibition of primary HIV-1 isolate, p24 ELISA, PBMC; assay type: cell-based; conditions: subtype A, coreceptor X4, read-out: IC50 (μM ± SD), HIV-1 92UG029
Method: as §3
(§5) NYAD-201, NYAD-202 and NYAD-203 were also tested against a set of primary HIV-1 isolates in PBMC representing mostly group M and one from group O with diverse coreceptor usage. […] The inhibitory activities of the peptides against this diverse range of primary isolates were similar, indicating its effectiveness against a wide range of HIV-1 isolates.

[10] = system: HIV-1 92US657; assay: as above; assay type: cell-based; conditions: subtype B, coreceptor R5, read-out: IC50 (μM ± SD), HIV-1 92US657
Method: as §3, §5

[11] = system: HIV-1 93BR020; assay: as above; assay type: cell-based; conditions: subtype F, coreceptor R5X4, read-out: IC50 (μM ± SD), HIV-1 93BR020
Method: as §3, §5

[12] = system: HIV-1 93IN101; assay: as above; assay type: cell-based; conditions: subtype C, coreceptor R5, read-out: IC50 (μM ± SD), HIV-1 93IN101
Method: as §3, §5

[13] = system: HIV-1 93RW024; assay: as above; assay type: cell-based; conditions: subtype A, coreceptor R5X4, read-out: IC50 (μM ± SD), HIV-1 93RW024
Method: as §3, §5

[14] = system: HIV-1 98CN009; assay: as above; assay type: cell-based; conditions: subtype C, coreceptor R5, read-out: IC50 (μM ± SD), HIV-1 98CN009
Method: as §3, §5

[15] = system: HIV-1 BCF02; assay: as above; assay type: cell-based; conditions: (Group 0), coreceptor R5, read-out: IC50 (μM ± SD), HIV-1 BCF02
Method: as §3, §5

[16] = system: HIV-1 CMU02; assay: as above; assay type: cell-based; conditions: subtype EA, coreceptor X4, read-out: IC50 (μM ± SD), HIV-1 CMU02
Method: as §3, §5

[17] = system: HIV-1 RU570; assay: as above; assay type: cell-based; conditions: subtype G, coreceptor R5, read-out: IC50 (μM ± SD), HIV-1 RU570
Method: as §3, §5

[18] = Cytotoxicity, XTT method, MT-2 cells; assay type: cell-based, human; conditions: human, read-out: CC50 (μM) ± SD, cytotoxicity in MT-2 cells
Method: (§6) Cytotoxicity of peptides in MT-2 cells and PBMC was measured by the XTT [(sodium 3′-(1-(phenylamino)-carbonyl)-3,4-tetrazolium-bis(4-methoxy-6-nitro) bezenesulfonic acid hydrate)] method as previously described (Jiang et al., 2004). Briefly, for MT-2 cells, 100 μl of a peptide at graded concentrations was added to an equal volume of cells (1×10^5 cells/ml) in 96-well plates followed by incubation at 37° C. for 4 days, which ran parallel to the neutralization assay in MT-2 (except medium was added instead of virus). In the case of PBMC, 5×10^5 cells/ml were used and the cytotoxicity was measured after 7 days. After addition of XTT (PolySciences, Inc.), the soluble intracellular formazan was quantitated colorimetrically at 450 nm 4 hr later with a reference at 620 nm. The percent of cytotoxicity and the CC50 values were calculated as above (Table 2 and Table 3).

[19] = Cytotoxicity, XTT method, PBMC; assay type: cell-based; conditions: human
Method: as §6

[20] = system: Jurkat cells; assay: Cytotoxicity, LDH leakage, Jurkat cells; assay type: cell-based; conditions: 30 min, 2 hr and 4 hr of exposure
Method: (§7) Cytotoxicity was also evaluated in Jurkat cells using a Promega LDH leakage detection kit. Jurkat cells were plated at 10^4 cells/well in a volume of 200 μl. The test was performed after 30 min, 2 hr and 4 hr of exposure to the NYAD-201, NYAD-202 and NYAD-203 compounds.

[21] = Solubility, observation in the Jurkat cytotoxicity test; assay type: physicochemical
Method: as §7

CSCC[C@@H]1NC(=O)[C@H](Cc2c[nH]c3ccccc23)NC(=O)[C@@](C)(NC(=O)[C@H](CCCCN)NC(=O)[C@@H](NC(=O)[C@H](C)NC(=O)[C@H](CCC(N)=O)NC(=O)[C@H](C)N)C(C)C)CCCC=CCCC[C@@](C)(C(=O)N[C@H](C(=O)N[C@@H](CC(C)C)C(=O)N[C@@H](CC(C)C)C(=O)N[C@H](C(=O)N[C@@H](C)C(N)=O)C(C)C)[C@@H](C)O)NC(=O)[C@H]([C@@H](C)O)NC1=O [NYAD-202, AQAVKXWMTXTLLVA] (H-AQAVK[S5]WMT[S5]TLLVA-NH2; staple 6-10)
IC50 [1]: 4.53 ± 1.19 µM | IC50 ([2]; read-out: IC50 (μM ± SD), HIV-1 IIIB, laboratory strain, subtype B, MT-2, coreceptor X4): 2.36 ± 0.33 µM | IC50 ([2]; read-out: IC50 (μM) ± SD, antiviral activity against HIV-1 IIIB, MT-2 cells, p24 production, fourth day post-infection): 2.36 ± 0.33 µM | IC50 [3]: 2.47 ± 0.71 µM | IC50 [4]: 2.64 ± 0.39 µM | IC50 [5]: 4.48 ± 0.84 µM | IC50 [6]: 3.5 ± 0.6 µM | IC50 [7]: 3.47 ± 0.22 µM | IC50 [8]: 2.23 ± 0.44 µM | IC50 [9]: 3.97 ± 0.47 µM | IC50 [10]: 3.61 ± 0.57 µM | IC50 [11]: 2.51 ± 0.43 µM | IC50 [12]: 5.53 ± 0.39 µM | IC50 [13]: 3.71 ± 0.19 µM | IC50 [14]: 4.08 ± 0.92 µM | IC50 [15]: 6.2 ± 1.2 µM | IC50 [16]: 4.2 ± 0.01 µM | IC50 [17]: 6.34 ± 2.22 µM | CC50 at 4 days [18]: 30.2 ± 4.32 µM | CC50 at 7 days [19]: > 116 µM | Cytotoxicity in Jurkat cells (LDH leakage) [20]: did not demonstrate toxicity | Solubility [21]: not very soluble
